The values below come from US6221865A, “Inhibitors of protein isoprenyl transferases” (priority 1998, dated 2001).

Where a name gives a salt, the structure may show the parent alone.

The target of one test is T1, protein farnesyltransferase (Rattus norvegicus, UniProt Q02293+Q04631).
T1 construct: The enzyme is purified according to Reiss, Y., et al., Cell, 62: 81-88 (1990), utilizing steps one through three; from tissue; host or cells: rat brain
T1 sequence (Q02293 whole entry, one chain of several): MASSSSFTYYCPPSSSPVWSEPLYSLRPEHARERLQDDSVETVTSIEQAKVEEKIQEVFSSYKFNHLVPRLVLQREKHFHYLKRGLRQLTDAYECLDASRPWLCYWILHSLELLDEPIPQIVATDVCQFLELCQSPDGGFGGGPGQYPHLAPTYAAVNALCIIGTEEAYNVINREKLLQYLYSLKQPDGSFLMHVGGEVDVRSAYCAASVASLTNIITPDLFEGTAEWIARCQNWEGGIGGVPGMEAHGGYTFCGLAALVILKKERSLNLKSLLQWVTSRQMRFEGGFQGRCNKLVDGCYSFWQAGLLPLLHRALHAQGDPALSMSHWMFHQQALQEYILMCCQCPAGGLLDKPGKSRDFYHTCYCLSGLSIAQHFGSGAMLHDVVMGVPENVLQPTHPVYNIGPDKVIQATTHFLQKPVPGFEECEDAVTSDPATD
Briefly: Inhibition of farnesyltransferase (scintillation proximity assay, rat brain enzyme, biotin-K Ras B fragment substrate). Type of test: biochemical. As to conditions: 1 × 10^-5 M (Table 1). The procedure, abridged: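 Enzyme from rat brain, partly purified (steps one to three), assayed by SPA kit using 0.1 mM final biotin-K Ras B peptide as prenyl acceptor rather than biotin-lamin. Activity given as percent inhibition.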
(In general: SPA uses beads or plates that emit light when radiolabelled molecules are held near them.)
Regarding `CSCC[C@H](NC(=O)c1ccc(CNCCN2CCCCC2)cc1-c1ccccc1)C(=O)O` [Example 366], the “% inhibition of farnesyltransferase at 1 × 10^-5 M” value (“% inhibition … at 1 × 10^-5 M” below) was 83%.
On to `CSCC[C@H](NC(=O)c1ccc(CNc2ccc(C(C)C)cc2)cc1-c1ccccc1)C(=O)O` [Example 692], for which the “% inhibition … at 1 × 10^-5 M” value was 74%.
Consider `C=C[C@@H](CC1CCCCC1)NCc1ccc(C(=O)N[C@@H](CCSC)C(=O)O)c(-c2ccccc2)c1` [Example 664], for which the “% inhibition … at 1 × 10^-5 M” value is given as 75%.

The same test, now with this note: 1 × 10^-6 M (Table 2).
Turning to `CSCC[C@H](NC(=O)c1ccc(CN(Cc2ccccc2)c2ccccc2SC)cc1-c1ccccc1C)C(=O)[O-].[Li+]` [Example 850], the “% inhibition of farnesyltransferase at 1 × 10^-6 M” value (shortened to “% inhibition … at 1 × 10^-6 M”) stood at 90%.
Still for that read-out and setting: in the case of `COC(=O)c1cscc1NCc1ccc(C(=O)N[C@@H](CCSC)C(=O)O)c(-c2ccccc2C)c1` [Example 724] it was 87%; in that of `CSCC[C@H](NC(=O)c1ccc(CN(Cc2ccccc2)c2ccccc2)cc1-c1ccccc1C)C(=O)O` [Example 406], 95%.
As to `CSCC[C@H](NC(=O)c1ccc(CN(Cc2ccc(C(F)(F)F)cc2)c2ccccc2)cc1-c1ccccc1C)C(=O)O` [Example 782], the “% inhibition … at 1 × 10^-6 M” value stood at 96%.
On the same count and under the same terms, under `CSCC[C@H](NC(=O)c1ccc(COCC2CCCO2)cc1-c1ccccc1)C(=O)O` (stereo partly shown) [Example 288] stands 22%; under `CSCC[C@H](NC(=O)c1ccc(NC(=O)C2CCC(=O)N2)cc1-c1ccccc1)C(=O)O` (stereo partly shown) [Example 202], 31%; under `CSCC[C@H](NC(=O)c1ccc(CN(CC23CC4CC(CC(C4)C2)C3)c2ccccc2)cc1-c1ccccc1C)C(=O)O` [Example 510], 84%.
Still for that read-out and setting: under `CCSC[C@H](CC1CCCCC1)NCc1ccc(C(=O)N[C@@H](CCSC)C(=O)OCOC(=O)C(C)(C)C)c(-c2ccccc2C)c1` [Example 764] stands 88%; under `CSCC[C@H](NC(=O)c1ccc(CNc2ccccc2CCO)cc1-c1ccccc1)C(=O)O` [Example 671], 36%; under `CSCCC(NC(=O)c1ccc(NC(=O)c2cncnc2)cc1-c1ccccc1)C(=O)O` (stereo not shown) [Example 219], 56%.
The same measure, in the same setting: under `CSCC[C@H](NC(=O)c1ccc(CNc2ccc(C(O)(C(F)(F)F)C(F)(F)F)cc2)cc1-c1ccccc1)C(=O)O` [Example 693] stands 53%; under `CSCC[C@H](NC(=O)c1ccc(CNc2ccc(N3CCCCC3)cc2)cc1-c1ccccc1)C(=O)O` [Example 697], 39%; under `CSCC[C@H](NC(=O)c1ccc(NCC(CO)CC2CCCCC2)cc1-c1ccccc1C)C(=O)O` (stereo partly shown) [Example 479], 95%.
In the case of `CSCC[C@H](NC(=O)c1ccc(OC/C=C/c2ccccc2)cc1-c1ccccc1C)C(=O)O` [Example 560], the “% inhibition … at 1 × 10^-6 M” value came to 91%.
The same measure, in the same setting: in the case of `CSCC[C@H](NC(=O)c1ccc(COCc2ccccc2C)cc1-c1ccccc1C)C(=O)[O-].[Li+]` [Example 577] it was 94%; in that of `CCc1nnc(NCc2ccc(C(=O)N[C@@H](CCSC)C(=O)O)c(-c3ccccc3C)c2)s1` [Example 723], 87%.
Consider `CSCCC(NC(=O)c1ccc(NC(=O)Cc2cscn2)cc1-c1ccccc1)C(=O)O` (stereo not shown) [Example 162], for which the “% inhibition … at 1 × 10^-6 M” value amounted to 12%.
Still for that read-out and setting: under `CSCC[C@H](NC(=O)c1ccc(CNCc2ccc(N)cc2)cc1-c1ccccc1)C(=O)O` [Example 653] stands 62%.

Still in this test, the particulars now being: 1 × 10^-7 M (Table 3).
Regarding `CSCC[C@H](NC(=O)c1ccc(CSc2nc3cc(C)ccc3[nH]2)cc1-c1ccccc1C)C(=O)O` [Example 733], the “% inhibition of farnesyltransferase at 1 × 10^-7 M” value (shortened to “% inhibition … at 1 × 10^-7 M”) is on record as 60%.
The same measure, in the same setting: in the case of `CSCC[C@H](NC(=O)c1ccc(CSc2ccc(F)cc2)cc1-c1ccccc1C)C(=O)O` [Example 740] it was 94%; in that of `CSCC[C@H](NC(=O)c1ccc(COCc2cccc3ccccc23)cc1-c1ccccc1C)C(=O)[O-].[Li+]` [Example 584], 96%; in that of `CCCCN(CCCC)C(=O)CNCc1ccc(C(=O)N[C@@H](CCSC)C(=O)O)c(-c2ccccc2C)c1` [Example 912], 85%.
Consider `CSCC[C@H](NC(=O)c1ccc(CN[C@@H](CO)CC2CCCCC2)cc1-c1ccccc1C)C(=O)O` [Example 618], for which the “% inhibition … at 1 × 10^-7 M” value is given as 89%.
Still for that read-out and setting: in the case of `COc1ccccc1CCOCc1ccc(C(=O)N[C@@H](CCSC)C(=O)O)c(-c2ccccc2C)c1` [Example 589] it was 91%; in that of `CSCC[C@H](NC(=O)c1ccc(NC(=O)CN)cc1-c1ccccc1)C(=O)O` [Example 748], 56%; in that of `CSCC[C@H](NC(=O)c1ccc(CSc2nc3ccccc3c(=O)[nH]2)cc1-c1ccccc1C)C(=O)O` [Example 745], 93%.
For `CSCC[C@H](NC(=O)c1ccc(COCCc2ccc(Cl)cc2)cc1-c1ccccc1C)C(=O)[O-].[Li+]` [Example 590], the “% inhibition … at 1 × 10^-7 M” value is recorded as 95%.
On to `CSCC[C@H](NC(=O)c1ccc(COCc2ccc(-c3ccc(SC)cc3)o2)cc1-c1ccccc1C)C(=O)[O-].[Li+]` [Example 447], for which the “% inhibition … at 1 × 10^-7 M” value was 91%.
Still for that read-out and setting: under `CSCC[C@H](NC(=O)c1ccc(COCc2ccc(-c3ccc(C(F)(F)F)cc3)o2)cc1-c1ccccc1C)C(=O)[O-].[Li+]` [Example 445] stands 94%; under `CSCC[C@H](NC(=O)c1ccc(CNC(Cc2ccccc2)Cc2ccccc2)cc1-c1ccccc1C)C(=O)O` [Example 523], 97%; under `CSCC[C@H](NC(=O)c1ccc(COCc2ccc(-c3cccc(C(F)(F)F)c3)o2)cc1-c1ccccc1C)C(=O)[O-].[Li+]` [Example 441], 91%.

The same test, now with this note: 1 × 10^-8 M (Table 4).
For the compound `CSCC[C@H](NC(=O)c1ccc(CO[C@@H](CC2CCCCC2)CN2CCOCC2)cc1-c1ccccc1C)C(=O)O` [Example 885], the “% inhibition of farnesyltransferase at 1 × 10^-8 M” value is given as 95%.
On the same count and under the same terms, in the case of `COc1ccc(N(Cc2ccccc2)Cc2ccc(C(=O)N[C@@H](CCSC)C(=O)O)c(-c3ccccc3C)c2)cc1` [Example 840] it was 73%.
Same read-out and setting: under `CSCC[C@H](NC(=O)c1ccc(CN(Cc2ccc3c(c2)OCO3)c2cnccn2)cc1-c1ccccc1C)C(=O)O` [Example 838] stands 92%; under `CSCC[C@H](NC(=O)c1ccc(CN(CCC2CCCCC2)C2CC2)cc1-c1ccccc1C)C(=O)O` [Example 880], 95%.
Same read-out and setting: in the case of `CSCC[C@H](NC(=O)c1ccc(CN(Cc2ccccc2)c2cccc([N+](=O)[O-])c2)cc1-c1ccccc1C)C(=O)[O-].[Li+]` [Example 842] it was 88%.

Staying with this test, now noted: Table 6, * = 0.1 μM (footnote); title prints 0.1 mM.
For orientation: % inhibition means the relative decrease from the control value, in per cent. A low value points to a weak effect. As for `CCC(=O)N(CCCc1ccc(C(=O)N[C@@H](CCSC)C(=O)O)c(-c2ccccc2C)c1)C1CCCCC1` [Example 1145], the “% inhibition at 0.1 μM (*)” value is 83%.

The test is the same for the next values; noted with them: read-out: % inhibition at 0.01 μM (**); Table 6, ** = 0.01 μM (footnote); title prints 0.01 mM.
By inhibition is commonly meant the percentage by which the read-out fell short of the control. With `CSCC[C@H](NC(=O)c1ccc(CN2OCCC2COC2CCCCC2)cc1-c1ccccc1C)C(=O)O` (stereo partly shown) [Example 1130, N-[4-(3-cyclohexyloxymethylisoxazolidin-2-ylmethyl)-2-(2-methylphenyl)benzoyl]methionine], the inhibition at 0.01 µM amounted to 88%.

Staying with this test, now noted: read-out: % inhibition of farnesyltransferase at 1 × 10^-6 M; 1 × 10^-6 M (Table 2).
For the compound `CSCC[C@H](NC(=O)c1ccc(CCc2ccc3ccccc3c2)cc1-c1ccccc1C)C(=O)O` [Example 468, lithium salt], the inhibition at 1 µM stood at 96%.
The same measure, in the same setting: in the case of `CSCC[C@H](NC(=O)c1ccc(CN(C(C)C)C2(CC3CCCCC3)CCC2)cc1-c1ccccc1C)C(=O)O` [Example 332] it was 26%; in that of `CSCC[C@H](NC(=O)c1ccc(C[C@H]2CC[C@@H](c3ccccc3)CC2)cc1-c1ccccc1C)C(=O)O` [Example 790, N-[4-syn-(4-phenylcyclohexylmethyl)-2-(2-methylphenyl)benzoyl]methionine lithium salt], 88%.
With `CSCC[C@H](NC(=O)c1ccc(/C=C/c2cnccn2)cc1-c1ccccc1C)C(=O)O` [Example 495, N-[4-(2-pyrazin-2-ylethen-1-yl)-2-(2-methylphenyl)benzoyl]methionine lithium salt], the inhibition at 1 µM worked out at 95%.
For the compound `CSCC[C@H](NC(=O)c1ccc(/C=C/CC2CCCCC2)cc1-c1ccccc1C)C(=O)O` [Example 471, N-[4-(3-cyclohexylprop-1-enyl)-2-(2-methylphenyl)benzoyl]methionine lithium salt], the inhibition at 1 µM is 94%.
As for `CSCC[C@H](NC(=O)c1ccc(CCc2cccc(-c3ccccc3)c2)cc1-c1ccccc1C)C(=O)O` [Example 793, N-[4-(2-(3-phenylphenyl)ethyl)-2-(2-methylphenyl)benzoyl]methionine lithium salt], the inhibition at 1 µM came to 94%.

Still in this test, the particulars now being: read-out: % inhibition of farnesyltransferase at 1 × 10^-7 M; 1 × 10^-7 M (Table 3).
On to `CSCC[C@H](NC(=O)c1ccc(CCc2ccccc2Cc2ccccc2)cc1-c1ccccc1C)C(=O)O` [Example 458, lithium salt], for which the inhibition at 0.1 µM was 87%.
With `CSCC[C@H](NC(=O)c1ccc(/C=C/c2ccc(Oc3ccccc3[N+](=O)[O-])cc2)cc1-c1ccccc1C)C(=O)O` [Example 856, N-[4-(2-(4-(2-nitrophenoxy)phenyl)ethen-1-yl)-2-(2-methylphenyl)benzoyl]methionine], the inhibition at 0.1 µM stood at 97%.
